A short description of assay [1]: inhibitors of PGC1a acetylation in cells, dose response, cell-based, cherry-picked samples (AID 720514).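 Also: potency may reflect raised or lowered acetylation signal.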 It is filed as functional.
Assay [2] is described as follows: inhibitors of non-replicating M. tuberculosis, dose response, luciferase, dry powder (AID 651619). It counts as functional. The following applies: Mycobacterium tuberculosis.
The nature of assay [3]: CTGF mRNA reduction under YAP1 overexpression, dose response, mechanism study for YAP1 pathway inhibitor project, DLD1 cells, RT-qPCR, cherry-pick (AID 1053127). It is filed as functional, cell-based. Particulars: DLD-1. (Quantitative PCR measures a nucleic acid by following its amplification.)
Assay [4] in a line: YAP1 pathway inhibition via CTGF transcript levels, dose response, cell-based, DLD1 colon cancer, RT-qPCR, cherry-pick (AID 1053122). It is filed as functional. The following applies: Cancer cell lines.
Assay [5] is described as follows: P. falciparum Dd2 blood-stage growth inhibition, dose response, SYBR Green fluorescence, erythrocytes, dry powder, set 2 (AID 1159574). It is filed as functional, cell-based.
Assay [6] in a line: HepG2 cell cytotoxicity, dose response, cytotoxicity control, plate reader, dry powder, set 6 (AID 743311). It counts as functional, cell-based.
Assay [7] is described as follows: cells. The following applies: HEK293.
The nature of assay [8]: A549 cell cytotoxicity, dose response, cytotoxicity control, plate reader, dry powder, set 6 (AID 743312). It counts as functional, cell-based.
The nature of assay [9]: HEK293T cell cytotoxicity, dose response, cytotoxicity control, plate reader, dry powder, set 10 (AID 743315). It counts as functional, cell-based. Particulars: HEK293.
Assay [10] can be described thus: P. falciparum Dd2 growth inhibitors, dose response, SYBR Green, dry powder samples (AID 1159566).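 Also: potency for growth inhibition with lower SYBR green DNA signal.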 It is filed as functional, cell-based.
The nature of assay [11]: HepG2 cell cytotoxicity, dose response, cytotoxicity control, plate reader, dry powder samples (AID 1159569).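 Also: inhibitor potency with signal falling toward the positive control level.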 It is filed as functional, cell-based.
The nature of assay [12]: P. falciparum 3D7-ScDHODH growth inhibitors, dose response, SYBR Green, dry powder samples (AID 1159570).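 Also: parasite growth measured after 72 hours of compound exposure.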 It counts as functional, cell-based.
The nature of assay [13]: P. falciparum ATP4 D1247Y mutant growth inhibitors, dose response, NITD609-resistant line, SYBR Green, dry powder (AID 1159571).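 Also: parasites synchronized at ring stage by sorbitol before testing.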 It is filed as functional, cell-based.
Assay [14] in a line: cytotoxicity toward HT-29 cells – cell-based, CellTiter-Glo luminescence, IC50, dose response (AID 1117330). It counts as functional. On the technique in general: In ATP-based viability assays light output follows the ATP content of the culture.
Assay [15] in a line: cytotoxicity toward Colo320 cells – cell-based, CellTiter-Glo luminescence, IC50, dose response (AID 1117334). It is filed as functional. Particulars: COLO 320.
Assay [16] can be described thus: CellTiter-Glo luminescent dose response of DLD-1 viability loss (AID 1117352). It counts as functional.
Assay [17] is described as follows: cytotoxicity toward HCT116 cells – cell-based, CellTiter-Glo luminescence, IC50, dose response (AID 1117332). It counts as functional. Particulars: HCT-116.
Assay [18] in a line: RKO cell viability reduction, dose response, CellTiter-Glo luminescence (AID 1117322). It counts as functional.
Assay [19] can be described thus: Concentration-dependent survival of SW480 colon cancer line, luminescence detection with CellTiter-Glo, half-maximal inhibitory concentration (AID 1117338). It counts as functional.
Assay [20] is described as follows: SNU-C1 cell viability reduction, dose response, CellTiter-Glo luminescence (AID 1117323). It is filed as functional, cell-based.

Counter-ions that a name gives are not always drawn. Active and inactive are the calls of the source.

AC50, IC90 and IC50 data for seven compounds are collected here from ChEMBL document CHEMBL1201862, “PubChem BioAssay data set” (2004).

Broadly, the AC50 is the midpoint of the concentration-response curve, whichever way the signal moves. Turning to `C[C@H](CO)N1C[C@H](C)[C@@H](CN(C)CC2CCOCC2)Oc2ncc(Br)cc2C1=O`, the concentration at half-maximal activity (AC50) in assay [1] is 36.4 µM (active).

By IC90 is commonly meant the point of the concentration-response curve where the effect stands at 90%. In the case of `[N-]=[N+]=NCCOCCNC(=O)CCCn1cc(C[S+]([O-])c2nnc(-c3ccc(F)cc3)o2)nn1` (stereo not given), the IC90 in [2] was 125 µM (active).

As for `COc1ccccc1C#Cc1ccc([C@@H]2[C@@H](CO)N3CCCCN(C(=O)C4CCC4)C[C@@H]23)cc1`, the AC50 was 17.7 µM (active) in [3] and 15.9 µM (active) in assay [4].

`COc1ccc2c3c([nH]c2c1)[C@@H](CO)N(C(C)=O)CC31CCN(C(=O)Nc2ccccc2F)CC1`: in assay [5], the AC50 was 2.48 µM (active).

`Cc1cccc(OCCn2c(S)nc3cc(F)ccc32)c1`: the concentration at half-maximal activity (AC50) in assay [6] was 44.9 µM (active); in assay [7] it was > 52 µM (inactive); in [8], 23.4 µM (active); in assay [9] it was > 52 µM (inactive).

For the compound `C[C@H]1CN([C@@H](C)CO)C(=O)c2c(c3ccccc3n2C)-c2ccccc2CO[C@H]1CN(C)S(=O)(=O)c1ccc(F)cc1`, the half-maximal activity concentration (AC50) in [10] is 0.47 µM (active); in [11] it was 50.9 µM (active); in assay [12], 0.819 µM (active); in assay [13], 1.05 µM (active).

The IC50 is the concentration at which inhibition is half-maximal. As to `Cc1cccc(Cc2c[nH]cn2)c1C` [DETOMIDINE HYDROCHLORIDE], the IC50 in assay [14], in [15], in assay [16], in [17], in assay [18] and in [19] was > 20 µM (inactive) each time. Besides, in [20], the IC50 is > 20 µM (inactive).
